In one series the target is T1, BMX (Homo sapiens, UniProt P51813).
T1 construct: purchased Reaction Biology Corporation
T1 sequence (P51813 1-675): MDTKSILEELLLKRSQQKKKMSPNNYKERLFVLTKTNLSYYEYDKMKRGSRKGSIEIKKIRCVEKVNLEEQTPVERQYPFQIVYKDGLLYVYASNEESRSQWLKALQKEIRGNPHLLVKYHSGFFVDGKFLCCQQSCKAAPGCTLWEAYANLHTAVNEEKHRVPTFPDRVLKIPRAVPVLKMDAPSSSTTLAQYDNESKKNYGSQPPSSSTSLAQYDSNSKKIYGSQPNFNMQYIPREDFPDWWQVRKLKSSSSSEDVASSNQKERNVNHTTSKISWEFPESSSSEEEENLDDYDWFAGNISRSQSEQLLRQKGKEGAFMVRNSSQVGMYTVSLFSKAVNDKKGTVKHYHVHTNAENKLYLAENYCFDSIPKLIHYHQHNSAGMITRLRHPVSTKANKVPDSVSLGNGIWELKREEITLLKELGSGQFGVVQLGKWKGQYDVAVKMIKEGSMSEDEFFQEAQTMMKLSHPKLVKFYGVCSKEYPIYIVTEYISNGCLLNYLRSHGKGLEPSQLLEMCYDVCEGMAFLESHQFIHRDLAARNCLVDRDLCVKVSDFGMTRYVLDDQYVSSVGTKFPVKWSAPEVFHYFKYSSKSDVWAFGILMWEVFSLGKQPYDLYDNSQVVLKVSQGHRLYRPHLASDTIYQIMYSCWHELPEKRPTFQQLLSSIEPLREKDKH
As to conditions: cited from earlier work.

In another series the target is T2, TXK (Homo sapiens, UniProt P42681).
T2 construct: purchased Reaction Biology Corporation
T2 sequence (P42681 1-527): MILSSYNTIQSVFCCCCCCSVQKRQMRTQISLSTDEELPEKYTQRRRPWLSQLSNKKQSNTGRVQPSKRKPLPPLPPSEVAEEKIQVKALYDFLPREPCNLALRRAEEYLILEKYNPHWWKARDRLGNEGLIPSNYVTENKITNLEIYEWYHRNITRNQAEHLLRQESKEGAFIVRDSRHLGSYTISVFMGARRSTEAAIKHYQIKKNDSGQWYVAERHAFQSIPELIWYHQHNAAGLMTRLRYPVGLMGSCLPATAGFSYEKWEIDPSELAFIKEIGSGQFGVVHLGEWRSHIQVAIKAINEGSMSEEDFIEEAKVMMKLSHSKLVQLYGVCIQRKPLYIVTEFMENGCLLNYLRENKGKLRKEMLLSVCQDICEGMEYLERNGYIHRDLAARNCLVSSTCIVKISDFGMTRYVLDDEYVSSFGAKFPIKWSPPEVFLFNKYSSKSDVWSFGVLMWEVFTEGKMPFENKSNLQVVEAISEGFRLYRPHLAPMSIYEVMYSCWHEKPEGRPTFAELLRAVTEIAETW
Description: Radiometric kinase assay (Reaction Biology HotSpot). Type of series: biochemical. The following applies: radiometric HotSpot, five-dose singlicate, [ATP] = 10 μM. Here is the method: (§1) If not mentioned differently, in vitro profiling of compounds was performed at Reaction Biology Corporation using the HotSpot™ assay platform.

A further series addresses T3, HER2 (Homo sapiens, UniProt P04626).
T3 construct: purchased Reaction Biology Corporation
The description is as above. Type of series: biochemical. The following applies: radiometric HotSpot, five-dose singlicate, [ATP] = 10 μM. On the procedure: as §1

The target in the next series is T4, TEC (Homo sapiens, UniProt P42680).
T4 construct: purchased Reaction Biology Corporation
T4 sequence (P42680 1-631): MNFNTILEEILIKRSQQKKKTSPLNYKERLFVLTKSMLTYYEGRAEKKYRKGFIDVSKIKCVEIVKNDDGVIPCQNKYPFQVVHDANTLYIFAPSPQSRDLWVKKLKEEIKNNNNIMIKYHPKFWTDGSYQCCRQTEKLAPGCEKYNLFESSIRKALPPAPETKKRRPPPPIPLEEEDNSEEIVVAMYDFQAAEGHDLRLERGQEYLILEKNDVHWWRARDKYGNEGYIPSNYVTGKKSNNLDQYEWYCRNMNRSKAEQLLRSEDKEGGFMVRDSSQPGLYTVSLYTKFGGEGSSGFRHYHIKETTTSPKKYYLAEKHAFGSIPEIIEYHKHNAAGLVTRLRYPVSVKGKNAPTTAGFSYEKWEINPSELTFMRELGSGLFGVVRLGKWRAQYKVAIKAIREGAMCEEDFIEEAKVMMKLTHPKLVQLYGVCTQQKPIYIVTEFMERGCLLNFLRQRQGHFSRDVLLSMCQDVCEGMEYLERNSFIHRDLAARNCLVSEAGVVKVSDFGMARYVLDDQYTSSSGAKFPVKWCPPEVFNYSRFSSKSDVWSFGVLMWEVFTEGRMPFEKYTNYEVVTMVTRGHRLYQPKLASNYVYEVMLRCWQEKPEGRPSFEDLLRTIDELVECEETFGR
Described as above. As to conditions: radiometric HotSpot, five-dose singlicate, [ATP] = 10 μM. It is filed as biochemical. On the procedure: as §1

For another series, the target named is T5, MKK7 (Homo sapiens, UniProt O14733).
T5 construct: purchased Reaction Biology Corporation
T5 sequence (O14733 1-419): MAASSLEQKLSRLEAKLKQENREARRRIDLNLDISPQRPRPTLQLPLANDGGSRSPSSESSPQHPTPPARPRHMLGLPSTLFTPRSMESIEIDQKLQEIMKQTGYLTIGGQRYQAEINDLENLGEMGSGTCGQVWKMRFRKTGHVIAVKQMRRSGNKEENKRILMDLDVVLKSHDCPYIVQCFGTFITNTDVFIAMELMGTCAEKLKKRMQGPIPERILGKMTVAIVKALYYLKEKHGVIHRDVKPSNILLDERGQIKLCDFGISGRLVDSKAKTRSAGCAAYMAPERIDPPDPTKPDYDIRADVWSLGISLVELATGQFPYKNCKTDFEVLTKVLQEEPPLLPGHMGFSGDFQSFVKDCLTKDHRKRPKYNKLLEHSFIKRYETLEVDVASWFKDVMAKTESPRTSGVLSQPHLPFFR
The description is as above. Type of series: biochemical. The following applies: read-out: Residual Activity @ 200 nM, MKK7. On the procedure:
as §1

For the next series, the target named is T6, EGFR (Homo sapiens, UniProt P00533).
T6 construct: purchased Reaction Biology Corporation
The series is described as above. Type of series: biochemical. The following applies: radiometric HotSpot, five-dose singlicate, [ATP] = 10 μM. On the procedure:
as §1

Another series deals with T7, JAK3 (Homo sapiens, UniProt P52333).
T7 construct: purchased Reaction Biology Corporation
T7 sequence (P52333 1-1124): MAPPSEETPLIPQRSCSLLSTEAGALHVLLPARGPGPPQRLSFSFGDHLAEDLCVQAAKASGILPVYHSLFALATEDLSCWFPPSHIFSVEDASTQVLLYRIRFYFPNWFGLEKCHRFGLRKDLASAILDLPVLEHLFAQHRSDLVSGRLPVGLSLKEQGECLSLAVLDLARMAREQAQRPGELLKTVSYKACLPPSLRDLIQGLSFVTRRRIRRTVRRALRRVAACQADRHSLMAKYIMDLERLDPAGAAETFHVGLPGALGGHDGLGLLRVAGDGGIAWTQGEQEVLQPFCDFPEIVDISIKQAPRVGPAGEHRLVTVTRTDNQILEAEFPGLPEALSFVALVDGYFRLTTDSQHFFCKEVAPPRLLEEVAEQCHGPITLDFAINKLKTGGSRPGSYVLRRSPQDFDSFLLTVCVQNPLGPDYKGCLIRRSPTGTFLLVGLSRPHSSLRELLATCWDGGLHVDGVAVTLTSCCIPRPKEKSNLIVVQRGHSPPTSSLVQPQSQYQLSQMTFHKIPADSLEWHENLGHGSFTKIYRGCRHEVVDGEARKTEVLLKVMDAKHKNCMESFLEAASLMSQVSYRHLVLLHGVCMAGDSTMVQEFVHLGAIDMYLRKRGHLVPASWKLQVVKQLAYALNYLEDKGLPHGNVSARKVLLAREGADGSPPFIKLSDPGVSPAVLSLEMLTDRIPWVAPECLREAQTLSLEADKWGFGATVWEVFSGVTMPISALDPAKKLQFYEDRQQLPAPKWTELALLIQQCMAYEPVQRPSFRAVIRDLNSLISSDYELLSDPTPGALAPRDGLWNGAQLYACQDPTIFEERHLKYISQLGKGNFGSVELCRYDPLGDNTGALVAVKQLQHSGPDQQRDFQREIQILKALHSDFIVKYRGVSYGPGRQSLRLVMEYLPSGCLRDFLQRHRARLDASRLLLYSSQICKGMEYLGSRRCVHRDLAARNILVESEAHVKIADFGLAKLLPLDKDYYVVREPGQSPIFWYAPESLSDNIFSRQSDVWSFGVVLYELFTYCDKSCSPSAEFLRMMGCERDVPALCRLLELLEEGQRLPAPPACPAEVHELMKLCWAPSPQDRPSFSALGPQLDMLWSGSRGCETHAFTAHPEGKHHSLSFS
The description is as above. Type of series: biochemical. On the procedure:
as §1

The target in another series is T8, ITK (Homo sapiens, UniProt Q08881).
T8 construct: purchased Reaction Biology Corporation
T8 sequence (Q08881 1-620): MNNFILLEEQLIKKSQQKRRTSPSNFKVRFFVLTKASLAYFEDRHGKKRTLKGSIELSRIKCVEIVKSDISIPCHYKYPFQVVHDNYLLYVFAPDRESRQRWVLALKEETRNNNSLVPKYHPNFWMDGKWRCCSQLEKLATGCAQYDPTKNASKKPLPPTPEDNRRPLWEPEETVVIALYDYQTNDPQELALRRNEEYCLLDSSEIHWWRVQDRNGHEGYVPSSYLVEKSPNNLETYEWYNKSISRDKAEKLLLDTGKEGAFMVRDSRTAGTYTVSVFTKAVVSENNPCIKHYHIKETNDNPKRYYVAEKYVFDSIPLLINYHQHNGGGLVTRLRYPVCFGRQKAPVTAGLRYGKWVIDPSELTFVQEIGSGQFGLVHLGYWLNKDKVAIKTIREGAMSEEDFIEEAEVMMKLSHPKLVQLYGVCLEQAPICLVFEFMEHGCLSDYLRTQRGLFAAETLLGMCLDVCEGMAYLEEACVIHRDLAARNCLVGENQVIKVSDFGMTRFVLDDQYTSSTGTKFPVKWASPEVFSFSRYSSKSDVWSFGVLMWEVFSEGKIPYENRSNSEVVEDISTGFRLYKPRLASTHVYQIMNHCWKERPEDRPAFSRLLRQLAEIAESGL
The series is described as above. Type of series: biochemical. The following applies: read-out: Residual Activity @ 200 nM, ITK. Here is the method: as §1

A further series has as its target T9, BLK (Homo sapiens, UniProt P51451).
T9 construct: purchased Reaction Biology Corporation
The description is as above. It is filed as biochemical. The following applies: radiometric HotSpot, five-dose singlicate, [ATP] = 10 μM. On the procedure: as §1

Another series concerns the target T10, HER4 (Homo sapiens, UniProt Q15303).
T10 construct: purchased Reaction Biology Corporation
The series is described as above. Type of series: biochemical. The following applies: radiometric HotSpot, five-dose singlicate, [ATP] = 10 μM. On the procedure:
as §1

The test system of another series is glutathione (GSH). Description: Glutathione reactivity / stability against GSH. The following applies: glutathione (GSH) in PBS buffer, pH 7.4, 5 mM GSH, read-out: half-life (t1/2) against glutathione (converted). Type of series: physicochemical. Here is the method:
A total of 5 µL of a 10 mM compound stock solution in DMSO were added to 5 µL of a 4 mM Indoprofen solution in PBS as internal standard. The mixture was diluted with PBS buffer to a total volume of 1 mL of component A. Additionally, a freshly prepared solution of 10 mM GSH in PBS buffer was used as component B. A total of 250 µL of each component was mixed and immediately subjected to HPLC analysis for t^0 measurement. The probes were stored at 40 °C in between the respective injections. t1/2 was determined by plotting natural logarithm of AUC/AUC0 against time.

The source of these data is PMC7730235, “Discovery of a Novel Class of Covalent Dual Inhibitors Targeting the Protein Kinases BMX and BTK” (International Journal of Molecular Sciences, 2020).

Each structure is given as a SMILES string. pIC50: −log10 of the molar value.

As usually defined, the pIC50 is the negative decadic logarithm of the IC50, by convention in mol/L.

T10 sequence (Q15303 26-1308): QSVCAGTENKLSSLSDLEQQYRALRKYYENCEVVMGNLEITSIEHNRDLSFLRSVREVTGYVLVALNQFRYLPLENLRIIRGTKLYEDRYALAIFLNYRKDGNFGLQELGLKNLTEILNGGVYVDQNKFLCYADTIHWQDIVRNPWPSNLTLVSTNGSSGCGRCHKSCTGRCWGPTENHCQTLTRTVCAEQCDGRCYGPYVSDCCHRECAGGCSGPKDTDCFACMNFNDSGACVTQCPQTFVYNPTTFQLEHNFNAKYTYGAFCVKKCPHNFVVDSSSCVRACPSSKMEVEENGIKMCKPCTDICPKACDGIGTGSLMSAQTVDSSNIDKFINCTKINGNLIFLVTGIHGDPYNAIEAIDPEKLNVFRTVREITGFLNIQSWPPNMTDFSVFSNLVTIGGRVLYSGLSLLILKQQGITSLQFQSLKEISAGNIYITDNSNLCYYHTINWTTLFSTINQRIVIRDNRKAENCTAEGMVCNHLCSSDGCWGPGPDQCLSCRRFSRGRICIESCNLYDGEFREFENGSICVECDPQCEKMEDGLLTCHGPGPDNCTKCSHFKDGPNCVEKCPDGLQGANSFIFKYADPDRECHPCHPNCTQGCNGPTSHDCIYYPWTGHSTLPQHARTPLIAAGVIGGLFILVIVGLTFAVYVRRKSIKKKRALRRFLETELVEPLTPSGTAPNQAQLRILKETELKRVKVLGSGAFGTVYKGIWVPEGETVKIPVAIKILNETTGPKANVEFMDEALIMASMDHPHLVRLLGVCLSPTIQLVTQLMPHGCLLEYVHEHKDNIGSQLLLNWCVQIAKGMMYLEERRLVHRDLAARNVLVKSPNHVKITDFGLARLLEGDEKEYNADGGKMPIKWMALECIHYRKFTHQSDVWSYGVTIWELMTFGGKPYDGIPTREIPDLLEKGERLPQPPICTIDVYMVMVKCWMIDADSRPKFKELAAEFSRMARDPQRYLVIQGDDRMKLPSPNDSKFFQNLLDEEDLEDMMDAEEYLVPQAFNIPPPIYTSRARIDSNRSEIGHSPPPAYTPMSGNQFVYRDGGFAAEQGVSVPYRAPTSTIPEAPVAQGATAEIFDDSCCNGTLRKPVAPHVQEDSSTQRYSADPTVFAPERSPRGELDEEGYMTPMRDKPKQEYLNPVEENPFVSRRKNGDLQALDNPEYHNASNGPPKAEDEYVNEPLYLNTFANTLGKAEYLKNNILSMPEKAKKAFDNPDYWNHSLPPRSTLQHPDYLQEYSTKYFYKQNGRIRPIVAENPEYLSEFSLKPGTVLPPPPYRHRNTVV
T6 sequence (P00533 25-1210): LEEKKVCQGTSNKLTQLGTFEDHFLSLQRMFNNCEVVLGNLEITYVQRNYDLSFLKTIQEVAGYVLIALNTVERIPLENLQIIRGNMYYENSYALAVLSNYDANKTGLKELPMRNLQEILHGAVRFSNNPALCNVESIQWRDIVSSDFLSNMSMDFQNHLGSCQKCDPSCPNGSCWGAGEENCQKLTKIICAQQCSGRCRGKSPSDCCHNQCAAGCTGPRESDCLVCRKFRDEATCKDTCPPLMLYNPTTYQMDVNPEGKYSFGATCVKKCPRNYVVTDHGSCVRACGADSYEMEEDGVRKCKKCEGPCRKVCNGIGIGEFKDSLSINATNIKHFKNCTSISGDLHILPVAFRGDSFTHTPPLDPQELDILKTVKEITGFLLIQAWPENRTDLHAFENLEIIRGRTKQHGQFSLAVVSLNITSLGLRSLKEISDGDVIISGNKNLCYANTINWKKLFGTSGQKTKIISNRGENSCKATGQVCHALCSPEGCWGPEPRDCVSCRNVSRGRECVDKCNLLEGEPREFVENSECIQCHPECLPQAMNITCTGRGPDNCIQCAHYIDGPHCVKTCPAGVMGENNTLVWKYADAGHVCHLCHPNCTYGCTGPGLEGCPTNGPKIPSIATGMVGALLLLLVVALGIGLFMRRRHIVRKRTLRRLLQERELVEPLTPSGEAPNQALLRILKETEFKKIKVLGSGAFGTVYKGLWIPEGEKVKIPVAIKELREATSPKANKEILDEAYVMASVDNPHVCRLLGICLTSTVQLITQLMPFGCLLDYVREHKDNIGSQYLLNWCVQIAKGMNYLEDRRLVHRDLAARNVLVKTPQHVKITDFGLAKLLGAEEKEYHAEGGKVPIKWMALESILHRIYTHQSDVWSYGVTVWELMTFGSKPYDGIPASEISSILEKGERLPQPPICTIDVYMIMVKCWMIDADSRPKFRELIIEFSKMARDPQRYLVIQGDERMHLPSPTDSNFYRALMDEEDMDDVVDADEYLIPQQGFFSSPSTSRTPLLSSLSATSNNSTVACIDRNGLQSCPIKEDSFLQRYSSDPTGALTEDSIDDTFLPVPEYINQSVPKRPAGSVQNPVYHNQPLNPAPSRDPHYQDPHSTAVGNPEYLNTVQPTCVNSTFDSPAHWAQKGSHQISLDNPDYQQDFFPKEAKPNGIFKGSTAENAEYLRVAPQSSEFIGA
T9 sequence (P51451 whole entry): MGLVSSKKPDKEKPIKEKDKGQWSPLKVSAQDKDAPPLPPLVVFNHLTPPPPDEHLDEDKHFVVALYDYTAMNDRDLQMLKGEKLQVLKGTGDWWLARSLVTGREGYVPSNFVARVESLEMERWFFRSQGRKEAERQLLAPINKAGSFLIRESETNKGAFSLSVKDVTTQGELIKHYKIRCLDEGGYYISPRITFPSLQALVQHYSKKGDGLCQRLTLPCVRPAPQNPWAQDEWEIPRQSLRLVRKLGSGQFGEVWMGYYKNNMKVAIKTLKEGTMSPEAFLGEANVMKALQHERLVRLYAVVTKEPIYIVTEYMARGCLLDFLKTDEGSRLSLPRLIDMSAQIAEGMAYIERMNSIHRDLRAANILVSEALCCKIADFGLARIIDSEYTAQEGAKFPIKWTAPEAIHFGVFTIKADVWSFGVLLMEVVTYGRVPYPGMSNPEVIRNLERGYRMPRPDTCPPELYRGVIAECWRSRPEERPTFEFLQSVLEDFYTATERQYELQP
T3 sequence (P04626 23-1255): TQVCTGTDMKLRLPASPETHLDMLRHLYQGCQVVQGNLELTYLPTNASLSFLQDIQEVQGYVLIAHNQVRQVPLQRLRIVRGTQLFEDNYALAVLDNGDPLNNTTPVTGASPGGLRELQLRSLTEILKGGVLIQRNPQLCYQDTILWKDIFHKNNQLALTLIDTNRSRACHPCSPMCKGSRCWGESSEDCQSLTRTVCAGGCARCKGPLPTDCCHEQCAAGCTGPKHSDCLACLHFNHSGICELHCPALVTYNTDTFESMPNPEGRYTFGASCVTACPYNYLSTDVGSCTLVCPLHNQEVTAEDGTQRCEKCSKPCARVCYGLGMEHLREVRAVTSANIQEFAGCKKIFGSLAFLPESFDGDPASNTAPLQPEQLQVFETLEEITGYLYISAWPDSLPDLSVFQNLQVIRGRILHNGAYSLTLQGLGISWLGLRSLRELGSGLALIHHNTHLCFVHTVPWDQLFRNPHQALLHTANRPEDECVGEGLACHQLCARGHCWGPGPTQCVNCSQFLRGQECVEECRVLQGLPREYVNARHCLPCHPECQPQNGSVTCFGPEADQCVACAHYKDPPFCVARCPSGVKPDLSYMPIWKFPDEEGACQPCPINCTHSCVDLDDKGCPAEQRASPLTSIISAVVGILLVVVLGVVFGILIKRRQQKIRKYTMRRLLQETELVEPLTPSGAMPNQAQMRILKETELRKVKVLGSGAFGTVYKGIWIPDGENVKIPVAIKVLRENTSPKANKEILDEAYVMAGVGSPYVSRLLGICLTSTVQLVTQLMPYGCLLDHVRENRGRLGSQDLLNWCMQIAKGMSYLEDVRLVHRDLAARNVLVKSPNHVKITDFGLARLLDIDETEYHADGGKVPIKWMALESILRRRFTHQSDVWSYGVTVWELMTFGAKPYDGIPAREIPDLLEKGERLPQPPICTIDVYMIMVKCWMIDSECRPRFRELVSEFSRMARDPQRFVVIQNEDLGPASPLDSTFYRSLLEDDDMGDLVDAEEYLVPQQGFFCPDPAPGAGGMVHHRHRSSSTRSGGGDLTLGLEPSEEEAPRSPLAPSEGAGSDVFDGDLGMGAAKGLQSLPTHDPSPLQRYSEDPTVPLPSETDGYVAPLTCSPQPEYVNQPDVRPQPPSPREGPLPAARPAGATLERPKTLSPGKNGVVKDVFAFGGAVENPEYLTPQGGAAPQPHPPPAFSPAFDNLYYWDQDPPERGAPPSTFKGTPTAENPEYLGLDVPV

As to `C=CC(=O)Nc1cc(C)cc(-n2c(=O)ccc3cnc4cc(-c5ccc(NS(C)(=O)=O)cc5)ccc4c32)c1` [JS25], the “kinact/KI BMX” value at BMX was 1.9e+07 M⁻¹ s⁻¹.

For the molecule `C=CC(=O)Nc1cccc(-c2c[nH]c3ncc(NC(=O)C4CCCC4)cc23)c1` [Compound 12a, N-(3-(3-acrylamidophenyl)-1H-pyrrolo[2,3-b]pyridin-5-yl)cyclopentanecarboxamide], the pIC50 at TXK is 7.89; at HER2 it was 6.21; at TEC, 7.51; at EGFR, 6.80; on JAK3 (radiometric HotSpot, five-dose singlicate, [ATP] = 10 μM), 5.87; against BLK it was 7.28. This molecule had a pIC50 against HER4 of 6.97. Also, the remaining activity at 0.2 µM on MKK7 turned out to be 100%; at JAK3 (read-out: Residual Activity @ 200 nM, JAK3), 94.5%; on ITK, 98.5%.

For the molecule `CN(C)C/C=C/C(=O)Nc1cc2c(Nc3ccc(F)c(Cl)c3)ncnc2cc1O[C@H]1CCOC1` [Afatinib, reference compound], the half-life at 25 µM in the series on glutathione (GSH) is 45.6 min.
